Laboratory results: ChEMBL document CHEMBL1201862, “PubChem BioAssay data set” (2004)
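Protocol summary: plate cells (96-well), add compound at 5 concentrations, incubate 48 h, interpolate endpoints linearly. GI50: concentration for 50% inhibition of growth.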 The source made the active and inactive calls. Rule as the data show it: active = GI50 up to about 1.1 µM and inactive = higher.

Legend:
Assay in all cases: NCI anticancer screen, dose series, 48 h
CAKI-1 = tested on: CAKI-1
CCRF-CEM = tested on: CCRF-CEM
COLO 205 = tested on: COLO 205
HL-60 = tested on: HL-60
HOP-62 = tested on: HOP-62
HOP-92 = tested on: HOP-92
HT-29 = tested on: HT-29
IGROV-1 = tested on: IGROV-1
NCI-H460 = tested on: NCI-H460
NCI-H522 = tested on: NCI-H522
OVCAR-5 = tested on: OVCAR-5
SF-539 = tested on: SF-539
SW-620 = tested on: SW-620
UO-31 = tested on: UO-31

SMILES | GI50 (CAKI-1) | GI50 (CCRF-CEM) | GI50 (COLO 205) | GI50 (HL-60) | GI50 (HOP-62) | GI50 (HOP-92) | GI50 (HT-29) | GI50 (IGROV-1) | GI50 (NCI-H460) | GI50 (NCI-H522) | GI50 (OVCAR-5) | GI50 (SF-539) | GI50 (SW-620) | GI50 (UO-31)
Cc1cc(N(CCC#N)CCC#N)ccc1CC1N=C(c2ccccc2)OC1=O (stereo not drawn) | > 100 µM (inactive) | > 100 µM (inactive) | > 100 µM (inactive) | > 100 µM (inactive) | > 100 µM (inactive) | > 100 µM (inactive) | > 100 µM (inactive) | > 100 µM (inactive) | > 100 µM (inactive) | > 100 µM (inactive) | > 100 µM (inactive) | > 100 µM (inactive) | > 100 µM (inactive) | > 100 µM (inactive)
Cc1ccc(C)c2c1C1CCCCC3(OCCCO3)C21O (stereo not drawn) | > 100 µM (inactive) | > 100 µM (inactive) | > 100 µM (inactive) | > 100 µM (inactive) | > 100 µM (inactive) |  | > 100 µM (inactive) | > 100 µM (inactive) | > 100 µM (inactive) | > 100 µM (inactive) | > 100 µM (inactive) | > 100 µM (inactive) | > 100 µM (inactive) | > 100 µM (inactive)
CCCCCC(=O)OC[n+]1ccc2c(C)c3[nH]c4ccccc4c3c(C)c2c1 | 1.82 µM (inactive) |  |  | 2.99 µM (inactive) | 1.24 µM (inactive) | 2.48 µM (inactive) | 0.482 µM (active) | 1.75 µM (inactive) | 0.142 µM (active) | 1.49 µM (inactive) | 1.28 µM (inactive) | 0.817 µM (active) | 0.446 µM (active) | 2.65 µM (inactive)
O=C(O)C1=C(C(=O)O)Oc2ccccc2O1 | > 100 µM (inactive) | > 100 µM (inactive) | > 100 µM (inactive) | > 100 µM (inactive) | > 100 µM (inactive) | > 100 µM (inactive) | > 100 µM (inactive) | > 100 µM (inactive) | > 100 µM (inactive) | > 100 µM (inactive) | > 100 µM (inactive) | > 100 µM (inactive) | > 100 µM (inactive) | > 100 µM (inactive)
CN(C)C(=O)Oc1c(-c2ccccc2)c(=O)n2c3ccccc3n3c(=O)n(C)c(=O)c1c23 | > 100 µM (inactive) |  | > 100 µM (inactive) |  | > 100 µM (inactive) | > 100 µM (inactive) | > 100 µM (inactive) | > 100 µM (inactive) | > 100 µM (inactive) |  | > 100 µM (inactive) | > 100 µM (inactive) | > 100 µM (inactive) | > 100 µM (inactive)
CN(C(=O)c1cccs1)C(=S)N1CCN(c2ccccn2)CC1 | > 100 µM (inactive) | > 100 µM (inactive) | > 100 µM (inactive) | > 100 µM (inactive) | > 100 µM (inactive) | > 100 µM (inactive) | > 100 µM (inactive) | > 100 µM (inactive) | > 100 µM (inactive) | > 100 µM (inactive) | > 100 µM (inactive) | > 100 µM (inactive) | > 100 µM (inactive) | > 100 µM (inactive)
CN(CCS(=O)(=O)N1C(=O)C2CCCN2C(=O)[C@@H]1Cc1ccccc1)C(=O)OCc1ccccc1 (stereo partly drawn) | 44.4 µM (inactive) | 33 µM (inactive) | 58.5 µM (inactive) | 10.7 µM (inactive) | > 100 µM (inactive) | 26.2 µM (inactive) | 47.4 µM (inactive) | > 100 µM (inactive) | 47.4 µM (inactive) | 39.5 µM (inactive) | > 100 µM (inactive) | > 100 µM (inactive) | > 100 µM (inactive) | 31.8 µM (inactive)
CCOC(=O)C1COc2cc(-c3cc(=O)c4ccccc4o3)ccc2O1 (stereo not drawn) | > 100 µM (inactive) | > 100 µM (inactive) | > 100 µM (inactive) |  |  | 10.4 µM (inactive) | 22.8 µM (inactive) | 66.8 µM (inactive) | 33.8 µM (inactive) | 19.2 µM (inactive) | 78.9 µM (inactive) | 30.5 µM (inactive) | > 100 µM (inactive) | 30.5 µM (inactive)
O=c1sc(-c2nc3ccccc3[nH]2)c(/N=C/c2ccccc2)n1-c1ccccc1 | > 100 µM (inactive) | > 100 µM (inactive) | 56.4 µM (inactive) | > 100 µM (inactive) | 27.9 µM (inactive) |  | > 100 µM (inactive) | 97.7 µM (inactive) |  | 90.2 µM (inactive) | > 100 µM (inactive) | 26.3 µM (inactive) | > 100 µM (inactive) | > 100 µM (inactive)
N#CCCN(C1=NN(C(=O)CC(=O)Nc2ccc(Cl)cc2)C(c2ccccc2)C1)c1ccc(Cl)cc1 (stereo not drawn) | > 100 µM (inactive) | > 100 µM (inactive) | > 100 µM (inactive) | > 100 µM (inactive) | > 100 µM (inactive) | > 100 µM (inactive) | > 100 µM (inactive) | > 100 µM (inactive) | > 100 µM (inactive) | > 100 µM (inactive) | > 100 µM (inactive) | > 100 µM (inactive) | > 100 µM (inactive) | > 100 µM (inactive)
O=C1Cc2nc(CO)c(CO)c(CO)c2CO1 | > 100 µM (inactive) | > 100 µM (inactive) | > 100 µM (inactive) | > 100 µM (inactive) | > 100 µM (inactive) | > 100 µM (inactive) | > 100 µM (inactive) | > 100 µM (inactive) | > 100 µM (inactive) | > 100 µM (inactive) | > 100 µM (inactive) | > 100 µM (inactive) | > 100 µM (inactive) | > 100 µM (inactive)
CC(=O)c1ccc(N2C(=O)C3c4[nH]c5ccccc5c4C4CCC(C(C)(C)C)CC4C3C2=O)cc1 (stereo not drawn) |  | 36.3 µM (inactive) | 15.2 µM (inactive) | 27.1 µM (inactive) | 19.5 µM (inactive) | 20.8 µM (inactive) | 17.3 µM (inactive) | 40.6 µM (inactive) |  | 24.4 µM (inactive) |  | 20.3 µM (inactive) | 21.7 µM (inactive) | 43.5 µM (inactive)
C=CCC(N(C)C(=O)[C@H](Cc1ccccc1)NC(=O)OCc1ccccc1)P(=O)(Oc1ccccc1)Oc1ccccc1 (stereo partly drawn) |  | 8.51 µM (inactive) | 8.43 µM (inactive) | 12.8 µM (inactive) | > 100 µM (inactive) | 29 µM (inactive) | > 100 µM (inactive) | > 100 µM (inactive) | 6.1 µM (inactive) | > 100 µM (inactive) |  | > 100 µM (inactive) | > 100 µM (inactive) | 5.5 µM (inactive)
O=C1CCCCCCCCCCC(=O)N2CCOCCOCCN1Cc1cccc(n1)C2 | > 100 µM (inactive) | > 100 µM (inactive) | > 100 µM (inactive) |  | > 100 µM (inactive) |  | > 100 µM (inactive) | > 100 µM (inactive) | > 100 µM (inactive) | 85.1 µM (inactive) | > 100 µM (inactive) | 83.2 µM (inactive) | > 100 µM (inactive) | > 100 µM (inactive)
COc1ccc(CNc2cnc3ccc(N)cc3n2)cc1OC | > 100 µM (inactive) | > 100 µM (inactive) | 60 µM (inactive) | > 100 µM (inactive) | > 10 µM (inactive) |  | > 100 µM (inactive) |  | > 100 µM (inactive) | > 100 µM (inactive) | > 100 µM (inactive) | > 100 µM (inactive) | > 100 µM (inactive) | 79.6 µM (inactive)
O=C(/C=C/c1ccco1)N1CCN(Cc2ccccc2)CC1 | > 100 µM (inactive) | > 100 µM (inactive) |  | > 100 µM (inactive) | > 100 µM (inactive) | > 100 µM (inactive) | > 100 µM (inactive) | > 100 µM (inactive) | > 100 µM (inactive) | > 100 µM (inactive) | > 100 µM (inactive) | > 100 µM (inactive) | > 100 µM (inactive) | 96.8 µM (inactive)
O=C(COc1ccc(Br)cc1Br)N1N=C(c2ccc([N+](=O)[O-])o2)CC1(O)c1ccccc1 (stereo not drawn) | 14.5 µM (inactive) | 3.13 µM (inactive) | 2.7 µM (inactive) | 3.12 µM (inactive) | 13.2 µM (inactive) |  | 13.4 µM (inactive) | 19.5 µM (inactive) | 6.24 µM (inactive) | 5.48 µM (inactive) | 29.3 µM (inactive) | > 10 µM (inactive) | 13.1 µM (inactive) | 5.36 µM (inactive)
Cn1c2c(c3ccccc31)C1CCCCCCC1C1C(=O)OC(=O)C21 (stereo not drawn) |  | 24.3 µM (inactive) | 40.6 µM (inactive) | 30.8 µM (inactive) |  |  | 30.1 µM (inactive) | 27.4 µM (inactive) | 36.8 µM (inactive) |  | > 100 µM (inactive) | 39.8 µM (inactive) | 32.4 µM (inactive) | > 100 µM (inactive)
CN(C)c1ccc(/C=C/c2ccc(/C=C/c3ccc(N(C)C)cc3)cc2)cc1 | > 100 µM (inactive) | > 100 µM (inactive) | > 100 µM (inactive) | > 100 µM (inactive) |  | 92.5 µM (inactive) | > 100 µM (inactive) | > 100 µM (inactive) | > 100 µM (inactive) | > 100 µM (inactive) | > 100 µM (inactive) | > 100 µM (inactive) | > 100 µM (inactive) | 41.2 µM (inactive)
CC(=O)OC(C)(C)[C@@H]1CC[C@]2(C)/C=C/[C@H](C)C[C@@H](O)C3=C(C)C[C@@H](O3)C12 (stereo partly drawn) | > 100 µM (inactive) | > 100 µM (inactive) | > 100 µM (inactive) | > 100 µM (inactive) | > 100 µM (inactive) | > 100 µM (inactive) | > 100 µM (inactive) | > 100 µM (inactive) | > 100 µM (inactive) |  | > 100 µM (inactive) | > 100 µM (inactive) | > 100 µM (inactive) | > 100 µM (inactive)
